Measurements taken from patent US20260069604A1, “NOVEL EQUILIBRATIVE NUCLEOSIDE TRANSPORTER INHIBITORS AND METHODS OF MAKING AND USING SAME” (Duke University, priority 2022, published 2026).
Where a chain is given by its changes, count along the chain named. “Also recorded” adds a separate entry of the source.

Legend:
[1] = plasma, brain and spinal cord pharmacokinetics after subcutaneous dosing; assay type: in vivo, Male CD-1 mice; conditions: for distribution into CNS tissue: brain and spinal cord, s.c. dosing, in equilibrium with plasma, no accumulation
Description: FIG. 27A-D show plasma (FIG. 27A), brain (FIG. 27B), and spinal cord (FIG. 27C) pharmacokinetics (PK) of JH-ENT-01 and dilazep. […] Male CD-1 mice (n=3 per time-point) were dosed subcutaneously (inj. volume: 8 μL/g BW) with 30 mg/kg of JH-ENT-01 (free base) and 29 mg/kg (molar equivalent) of dilazep dihydrochloride. Both drugs were formulated in 5% DMSO, 20% PEG-400, 20% propylene glycol, and 55% saline. Blood and tissues were collected at 10 min, 0.5, 1.5, 4.5, 8, 12, and 24 h. Following collection, the animals were perfused with saline. Liquid chromatography-tandem-mass spectrometry (LC/MS/MS) was used to determine drug concentration in samples. Pharmacokinetic parameters were calculated by non-compartmental approach within Win-Nonlin software. […] The distribution of both drugs into CNS tissue is high and is in equilibrium with plasma drug concentration (i.e., no drug accumulation in CNS).

[2] = molecular target: T1, hENT1cryst mutants (M33I, F307A, F307Y) (Homo sapiens, UniProt Q99808, DEL244-275/F307Y/L168F/N288K/P175A); assay: cold competition displacement of 3H-NBMPR by dilazep, hENT1cryst mutants; assay type: binding; conditions: F307Y mutant vs hENT1cryst
T1 construct: GFP; FLAG; His10; made in house
T1 sequence (Q99808 with tags, fused parts or gaps L168F/P175A/DEL244-275/N288K/F307Y): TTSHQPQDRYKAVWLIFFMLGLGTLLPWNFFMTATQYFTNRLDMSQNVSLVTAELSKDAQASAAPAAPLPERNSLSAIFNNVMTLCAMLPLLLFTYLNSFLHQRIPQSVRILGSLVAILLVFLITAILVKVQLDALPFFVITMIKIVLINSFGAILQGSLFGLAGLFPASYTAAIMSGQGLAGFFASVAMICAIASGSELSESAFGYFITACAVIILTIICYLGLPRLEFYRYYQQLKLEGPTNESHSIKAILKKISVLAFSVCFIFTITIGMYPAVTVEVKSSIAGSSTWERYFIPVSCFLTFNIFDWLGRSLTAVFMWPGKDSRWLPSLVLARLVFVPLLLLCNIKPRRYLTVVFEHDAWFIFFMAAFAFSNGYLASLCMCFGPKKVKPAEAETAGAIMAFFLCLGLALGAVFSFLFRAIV
Source text: (§1) This is substantiated by the equilibrium binding data, as both Q158S and Q158N ablate 3H-NBMPR binding capacity (FIG. 13B). […] This finding is consistent with previous reports on inhibitor sensitivities to substitutions at position 33 of hENT1.

[3] = molecular target: T2, hENT1cryst mutants (M33I, F307A, F307Y) (Homo sapiens, UniProt Q99808, DEL244-275/L168F/M33I/N288K/P175A); assay: as above; assay type: binding; conditions: M33I mutant vs hENT1cryst
T2 construct: GFP; FLAG; His10; made in house
T2 sequence (Q99808 with tags, fused parts or gaps M33I/L168F/P175A/DEL244-275/N288K): T1 sequence (Q99808 with tags, fused parts or gaps L168F/P175A/DEL244-275/N288K/F307Y) with M32I, Y274F
Source text: as §1

[4] = molecular target: T3, hENT1cryst mutants (M33I, F307A, F307Y) (Homo sapiens, UniProt Q99808, DEL244-275/F307A/L168F/N288K/P175A); assay: as above; assay type: binding; conditions: F307A mutant vs hENT1cryst
T3 construct: GFP; FLAG; His10; made in house
T3 sequence (Q99808 with tags, fused parts or gaps L168F/P175A/DEL244-275/N288K/F307A): T1 sequence (Q99808 with tags, fused parts or gaps L168F/P175A/DEL244-275/N288K/F307Y) with Y274A
Source text: as §1

[5] = molecular target: T4, hENT1cryst (Homo sapiens, UniProt Q99808, DEL243-274/L168F/N288K/P175A); assay: cold-competition SPA: displacement of 3H-NBMPR from detergent purified hENT1cryst; assay type: binding
T4 construct: GFP; FLAG; His10; made in house
T4 sequence (Q99808 with tags, fused parts or gaps L168F/P175A/DEL243-274/N288K): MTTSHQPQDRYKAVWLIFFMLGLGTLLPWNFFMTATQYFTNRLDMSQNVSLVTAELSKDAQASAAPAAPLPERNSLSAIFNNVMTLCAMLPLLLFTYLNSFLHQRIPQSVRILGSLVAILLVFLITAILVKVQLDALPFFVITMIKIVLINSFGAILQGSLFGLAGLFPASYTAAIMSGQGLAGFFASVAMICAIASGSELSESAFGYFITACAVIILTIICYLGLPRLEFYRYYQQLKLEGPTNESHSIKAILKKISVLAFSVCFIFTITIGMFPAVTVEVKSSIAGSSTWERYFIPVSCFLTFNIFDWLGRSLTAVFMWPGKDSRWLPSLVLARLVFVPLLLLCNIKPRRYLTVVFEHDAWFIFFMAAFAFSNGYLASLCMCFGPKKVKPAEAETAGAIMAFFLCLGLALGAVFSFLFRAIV
Description: The binding of cold competitor (dilazep control or JH-ENT-01) to hENT1cryst (85 nM) was assessed by the displacement of ^3H-NBMPR (10 nM) from the transporter (n=6 technical replicates from two representative experiments shown, error bars represent S.E.M.) FIG. 18A-C show initial functional characterization of novel hENT1 inhibitors.
A scintillation proximity assay was developed to measure binding of ^3H-NBMPR to hENT1-GFP fusion expressed and detergent solubilized from transiently transfected HEK293T cells (see Methods for details). By successively heating the assay mixture at increasing temperatures and measuring binding signal with scintillation counting, Tm values were determined for engineered hENT1 constructs bearing point mutations or truncations of disordered loops. Point mutations were designed based on a consensus approach, which is described in the Methods section of this chapter. A total of 40 point mutations or disordered-loop truncations were screened with this ^3H-NBMPR SPA approach (FIG. 4A). Mutations L168F, P175A and N288K were identified to substantially increase Tm. […] Importantly, hENT1cryst mediates nucleoside transport to a level consistent with a previous report in proteoliposomes (FIG. 3A) and is also functionally active in when expressed in oocytes (FIG. 3B). […]

[6] = molecular target: T5, hENT2 (Homo sapiens, UniProt Q14542); assay: 3H-adenosine uptake in oocytes expressing hENT2; assay type: cell-based; conditions: initial experiment n=1, FIG. 19
T5 construct: expressed in transfected cells; host or cells: oocytes (X. laevis)
T5 sequence (Q14542 1-456): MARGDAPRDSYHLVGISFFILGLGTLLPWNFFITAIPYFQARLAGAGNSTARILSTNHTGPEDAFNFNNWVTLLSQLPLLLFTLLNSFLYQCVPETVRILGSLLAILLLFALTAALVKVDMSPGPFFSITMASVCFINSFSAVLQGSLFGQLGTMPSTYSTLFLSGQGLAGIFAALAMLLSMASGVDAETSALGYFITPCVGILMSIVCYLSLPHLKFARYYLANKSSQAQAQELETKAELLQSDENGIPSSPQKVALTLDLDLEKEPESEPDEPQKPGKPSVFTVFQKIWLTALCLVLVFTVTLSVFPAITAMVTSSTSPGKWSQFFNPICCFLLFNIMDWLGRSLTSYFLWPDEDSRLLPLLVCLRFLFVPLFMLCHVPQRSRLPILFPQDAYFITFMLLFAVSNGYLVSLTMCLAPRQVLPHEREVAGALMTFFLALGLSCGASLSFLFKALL
Description: (§2) Initial experiment (n=1 replicates) showing JH-ENT-01 inhibits both hENT1 and hENT2 mediated uptake of ^3H-adenosine.
(§3) The subtype specificities for these compounds are currently unknown and pending further investigation with functional assays. Towards this end, established assays in oocytes permitted the measurement of nucleoside transport activity for multiple ENT subtypes (FIG. 18C) and the novel inhibitors were tested for their activities on different ENT subtypes (FIG. 19).

[7] = system: SNI-induced neuropathic pain; assay: SNI-induced neuropathic pain measured by PWF; assay type: in vivo; conditions: i.t., 100 nmol; p<0.05; n=4 males per group
[8] = molecular target: T6, hENT1 (Homo sapiens, UniProt Q99808); assay: 3H-adenosine uptake in oocytes expressing hENT1; assay type: cell-based; conditions: initial experiment n=1, FIG. 19
T6 construct: expressed in transfected cells; host or cells: oocytes (X. laevis)
T6 sequence (Q99808 1-456): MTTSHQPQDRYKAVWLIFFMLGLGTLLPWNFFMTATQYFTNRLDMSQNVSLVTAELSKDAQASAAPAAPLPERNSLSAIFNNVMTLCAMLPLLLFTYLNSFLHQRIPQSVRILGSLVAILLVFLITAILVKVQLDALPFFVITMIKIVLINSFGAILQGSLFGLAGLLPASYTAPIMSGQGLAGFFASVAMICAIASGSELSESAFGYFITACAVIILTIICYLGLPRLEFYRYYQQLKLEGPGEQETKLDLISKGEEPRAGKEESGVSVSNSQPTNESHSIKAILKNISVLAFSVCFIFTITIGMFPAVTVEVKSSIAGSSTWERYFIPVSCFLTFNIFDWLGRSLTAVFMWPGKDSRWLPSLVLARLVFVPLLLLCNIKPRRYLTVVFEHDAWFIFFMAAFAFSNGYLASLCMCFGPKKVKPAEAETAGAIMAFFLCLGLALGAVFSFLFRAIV
Description: as §2, §3

[9] = s.c. 30 mg/kg JH-ENT-01 (free base) vs 29 mg/kg dilazep dihydrochloride

distribution into CNS tissue [1]	decrease in apparent Kd for dilazep [2] [fold]	increase in apparent Kd for dilazep [3] [fold]	increase in apparent Kd for dilazep [4] [fold]	increase in binding affinity to hENT1cryst ([5]; cold competitor vs dilazep control, hENT1cryst 85 nM, 3H-NBMPR 10 nM) [fold]	inhibition of hENT2 mediated uptake of 3H-adenosine [6]	half-life compared to dilazep [1, 9]	plasma AUC compared to dilazep [1, 9]	SMILES	binding to target ([5]; in words, compared to dilazep (FIG. 17))	effect on SNI-induced neuropathic pain (PWF) [7]	inhibition of hENT1 mediated uptake of 3H-adenosine [8]
high	~4	~3	~90					COc1cc(C(=O)OCCCN2CCCN(CCCOC(=O)c3cc(OC)c(OC)c(OC)c3)CC2)cc(OC)c1OC [dilazep]			
high				~2	inhibits	longer half-life	higher plasma AUC	COc1cc(C(=O)OCCCN2CCCN(CCCOC(=O)c3cc(OC)c(OC)c(OCc4ccc([N+](=O)[O-])cc4)c3)CC2)cc(OC)c1OC [JH-ENT-01]	improved binding to target compared to dilazep	reversing SNI-induced neuropathic pain	inhibits; also recorded: retains potent inhibition activity
